# System: CD3 delta and CD3 gamma
# Assay: Loss of surface CD3 by flow cytometry in primary human CD3+ T cells after CD3 delta / CD3 gamma RNP
# Format: cell-based
# Conditions: day 7 post-electroporation; anti-CD3 OKT3
# Experimental: Editing of CRISPR systems containing dgRNA molecules comprising targeting domains to sequences of CD3 delta and CD3 gamma were tested for editing in primary CD3+ T cells (gRNA/Cas9 RNP delivered by electroporation) according to the methods described herein. Surface expression of CD3 after editing was assayed by flow cytometry. Briefly, edited CD3+ cells were stained with antibodies against CD3 (OKT3, BioLegend) at day 7 post-electroporation. Expression of CD3 in live cells (identified using 7AAD exclusion) relative to the un-edited controls was used to determine frequency of RNP editing. The results are reported in FIG. 65 and FIG. 66, which include flow cytometry data showing the % editing in primary human CD3+ T cells as measured by loss of surface expression of CD3.
substance,measurement,value
CR005334: dgRNA targeting domain to CD3 delta or CD3 gamma (guide ACUUCGAUAAUGAACUUGCA; chemistry not given here; listed as Homo sapiens),% loss of CD3,98%
